Laboratory results from PubChem BioAssay (NCI).
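Compound exposure: 48 hours, 5 concentrations, 96-well plates. TGI is the concentration that stops growth completely.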

How the values were obtained:
Experiment in all cases: NCI tumour cell line growth inhibition, 48 h
OVCAR-5 ovarian = test system: OVCAR-5 ovarian
HS 578T breast = test system: HS 578T breast
RXF 393 renal = test system: RXF 393 renal
RPMI-8226 leukemia = test system: RPMI-8226 leukemia
UO-31 renal = test system: UO-31 renal
UACC-62 melanoma = test system: UACC-62 melanoma
A498 renal = test system: A498 renal
MDA-N = test system: MDA-N
SN12C renal = test system: SN12C renal
KM12 colon = test system: KM12 colon
EKVX NSCLC = test system: EKVX NSCLC
MDA-MB-435 = test system: MDA-MB-435
IGROV1 ovarian = test system: IGROV1 ovarian
COLO 205 colon = test system: COLO 205 colon
SK-MEL-28 melanoma = test system: SK-MEL-28 melanoma
SF-539 CNS = test system: SF-539 CNS
786-0 renal = test system: 786-0 renal
PC-3 prostate = test system: PC-3 prostate
OVCAR-3 ovarian = test system: OVCAR-3 ovarian
NCI-H522 lung = test system: NCI-H522 lung
A549 NSCLC = test system: A549 NSCLC
U251 CNS = test system: U251 CNS
T-47D breast = test system: T-47D breast
OVCAR-8 ovarian = test system: OVCAR-8 ovarian
ACHN renal = test system: ACHN renal
NCI/ADR-RES ovarian = test system: NCI/ADR-RES ovarian
SF-268 CNS = test system: SF-268 CNS
HOP-92 NSCLC = test system: HOP-92 NSCLC
LOX IMVI melanoma = test system: LOX IMVI melanoma
SNB-75 CNS = test system: SNB-75 CNS
M14 melanoma = test system: M14 melanoma
MCF7 breast = test system: MCF7 breast
DU-145 prostate = test system: DU-145 prostate
HL-60(TB) leukemia = test system: HL-60(TB) leukemia
HCT-15 colon = test system: HCT-15 colon
HOP-62 NSCLC = test system: HOP-62 NSCLC
TK-10 renal = test system: TK-10 renal
NCI-H23 lung = test system: NCI-H23 lung
HCC-2998 colon = test system: HCC-2998 colon
SF-295 CNS = test system: SF-295 CNS
SK-MEL-2 melanoma = test system: SK-MEL-2 melanoma
K-562 leukemia = test system: K-562 leukemia
CCRF-CEM leukemia = test system: CCRF-CEM leukemia
MOLT-4 leukemia = test system: MOLT-4 leukemia
SK-OV-3 ovarian = test system: SK-OV-3 ovarian
SW-620 colon = test system: SW-620 colon
SNB-19 CNS = test system: SNB-19 CNS
HT29 colon = test system: HT29 colon
MDA-MB-231 breast = test system: MDA-MB-231 breast
NCI-H226 lung = test system: NCI-H226 lung
NCI-H460 lung = test system: NCI-H460 lung
OVCAR-4 ovarian = test system: OVCAR-4 ovarian
HCT-116 colon = test system: HCT-116 colon
SK-MEL-5 melanoma = test system: SK-MEL-5 melanoma
UACC-257 melanoma = test system: UACC-257 melanoma
MALME-3M melanoma = test system: MALME-3M melanoma
SR leukemia = test system: SR leukemia
CAKI-1 renal = test system: CAKI-1 renal

Compound `Cc1c(O)c(C)c2c(C)cn(C(=O)C(C)(C)C)c2c1C` has a TGI (OVCAR-5 ovarian) of 83 µM, a TGI (HS 578T breast) of 77.2 µM and a TGI (RXF 393 renal) of 41.6 µM. For the same compound, the TGI (RPMI-8226 leukemia) was 84.5 µM, the TGI (UO-31 renal) was 79.6 µM and the TGI (UACC-62 melanoma) was 28.5 µM. For the same compound, the TGI (A498 renal) was 30 µM, the TGI (MDA-N) was 38.8 µM and the TGI (SN12C renal) was 31.8 µM. It also gave a TGI (KM12 colon) of 27.2 µM, a TGI (EKVX NSCLC) of 49.7 µM and a TGI (MDA-MB-435) of 30.3 µM. For the same compound, the TGI (IGROV1 ovarian) was 42.2 µM, the TGI (COLO 205 colon) was 30.3 µM and the TGI (SK-MEL-28 melanoma) was 28.7 µM. The TGI (SF-539 CNS) was 30 µM, the TGI (786-0 renal) was 36.3 µM and the TGI (PC-3 prostate) was 38.5 µM. For the same compound, the TGI (OVCAR-3 ovarian) was > 100 µM, the TGI (NCI-H522 lung) was 56.2 µM and the TGI (A549 NSCLC) was 64.7 µM. The TGI (U251 CNS) was 69 µM, the TGI (T-47D breast) was 90 µM and the TGI (OVCAR-8 ovarian) was 34.7 µM. The TGI (ACHN renal) was 35.3 µM, the TGI (NCI/ADR-RES ovarian) was > 100 µM and the TGI (SF-268 CNS) was > 100 µM. The TGI (HOP-92 NSCLC) was 17.5 µM, the TGI (LOX IMVI melanoma) was 92.2 µM and the TGI (SNB-75 CNS) was 34.1 µM. It also gave a TGI (M14 melanoma) of 30.5 µM, a TGI (MCF7 breast) of 20.3 µM and a TGI (DU-145 prostate) of 43.9 µM. For the same compound, the TGI (HL-60(TB) leukemia) was > 100 µM, the TGI (HCT-15 colon) was 40.6 µM and the TGI (HOP-62 NSCLC) was 31.7 µM. For the same compound, the TGI (TK-10 renal) was 36.4 µM, the TGI (NCI-H23 lung) was 41.6 µM and the TGI (HCC-2998 colon) was 96.6 µM. It also gave a TGI (SF-295 CNS) of 32.9 µM, a TGI (SK-MEL-2 melanoma) of 43.4 µM and a TGI (K-562 leukemia) of 98.2 µM. It also gave a TGI (CCRF-CEM leukemia) of 55.7 µM, a TGI (MOLT-4 leukemia) of 55.2 µM and a TGI (SK-OV-3 ovarian) of 42.8 µM. It also gave a TGI (SW-620 colon) of 74.4 µM, a TGI (SNB-19 CNS) of 65.5 µM and a TGI (HT29 colon) of 42.6 µM. For the same compound, the TGI (MDA-MB-231 breast) was 28.5 µM, the TGI (NCI-H226 lung) was 33.5 µM and the TGI (NCI-H460 lung) was 63.8 µM. For the same compound, the TGI (OVCAR-4 ovarian) was 27 µM, the TGI (HCT-116 colon) was 45.3 µM and the TGI (SK-MEL-5 melanoma) was 27.8 µM.

For `CCOC(=O)c1ccc(NC(=O)O/N=C(/Cl)CCl)cc1`, the TGI (OVCAR-5 ovarian) was > 100 µM, the TGI (HS 578T breast) was > 100 µM and the TGI (RPMI-8226 leukemia) was > 100 µM. For the same compound, the TGI (UO-31 renal) was > 100 µM, the TGI (A498 renal) was > 100 µM and the TGI (MDA-N) was > 100 µM. The TGI (SN12C renal) was > 100 µM, the TGI (KM12 colon) was > 100 µM and the TGI (UACC-257 melanoma) was > 100 µM. For the same compound, the TGI (EKVX NSCLC) was > 100 µM, the TGI (MALME-3M melanoma) was > 100 µM and the TGI (SR leukemia) was > 100 µM. The TGI (IGROV1 ovarian) was > 100 µM, the TGI (COLO 205 colon) was > 100 µM and the TGI (SK-MEL-28 melanoma) was > 100 µM. For the same compound, the TGI (SF-539 CNS) was > 100 µM, the TGI (786-0 renal) was > 100 µM and the TGI (PC-3 prostate) was > 100 µM. The TGI (OVCAR-3 ovarian) was > 100 µM, the TGI (A549 NSCLC) was > 100 µM and the TGI (U251 CNS) was > 100 µM. For the same compound, the TGI (CAKI-1 renal) was > 100 µM, the TGI (T-47D breast) was > 100 µM and the TGI (OVCAR-8 ovarian) was > 100 µM. The TGI (ACHN renal) was > 100 µM, the TGI (NCI/ADR-RES ovarian) was > 100 µM and the TGI (SF-268 CNS) was > 100 µM. The TGI (LOX IMVI melanoma) was > 100 µM, the TGI (SNB-75 CNS) was > 100 µM and the TGI (MCF7 breast) was 76 µM. For the same compound, the TGI (DU-145 prostate) was > 100 µM, the TGI (HL-60(TB) leukemia) was 68.7 µM and the TGI (HCT-15 colon) was > 100 µM. The TGI (HOP-62 NSCLC) was > 100 µM, the TGI (TK-10 renal) was > 100 µM and the TGI (NCI-H23 lung) was > 100 µM. The TGI (SF-295 CNS) was > 100 µM, the TGI (SK-MEL-2 melanoma) was > 100 µM and the TGI (K-562 leukemia) was > 100 µM. For the same compound, the TGI (CCRF-CEM leukemia) was > 100 µM, the TGI (MOLT-4 leukemia) was > 100 µM and the TGI (SK-OV-3 ovarian) was > 100 µM. For the same compound, the TGI (SW-620 colon) was > 100 µM, the TGI (SNB-19 CNS) was > 100 µM and the TGI (HT29 colon) was > 100 µM. For the same compound, the TGI (MDA-MB-231 breast) was > 100 µM, the TGI (NCI-H460 lung) was > 100 µM and the TGI (OVCAR-4 ovarian) was > 100 µM. The TGI (HCT-116 colon) was > 100 µM and the TGI (SK-MEL-5 melanoma) was > 100 µM.
